From patent US20130338154A1, “MGLUR4 ALLOSTERIC POTENTIATORS, COMPOSITIONS, AND METHODS OF TREATING NEUROLOGICAL DYSFUNCTION” (Vanderbilt University, priority 2009, published 2013) come the findings set out here.

Test [1] concerns the target T1, mGluR4 (Homo sapiens, UniProt Q14833). The test is described as follows: mGluR4 potentiation assay (Table I): response to EC20 agonist in presence of compound. Conditions: for pEC50: potentiation of mGluR4 agonist response. The format is cell-based.
Target sequence in this assay (Q14833 whole entry): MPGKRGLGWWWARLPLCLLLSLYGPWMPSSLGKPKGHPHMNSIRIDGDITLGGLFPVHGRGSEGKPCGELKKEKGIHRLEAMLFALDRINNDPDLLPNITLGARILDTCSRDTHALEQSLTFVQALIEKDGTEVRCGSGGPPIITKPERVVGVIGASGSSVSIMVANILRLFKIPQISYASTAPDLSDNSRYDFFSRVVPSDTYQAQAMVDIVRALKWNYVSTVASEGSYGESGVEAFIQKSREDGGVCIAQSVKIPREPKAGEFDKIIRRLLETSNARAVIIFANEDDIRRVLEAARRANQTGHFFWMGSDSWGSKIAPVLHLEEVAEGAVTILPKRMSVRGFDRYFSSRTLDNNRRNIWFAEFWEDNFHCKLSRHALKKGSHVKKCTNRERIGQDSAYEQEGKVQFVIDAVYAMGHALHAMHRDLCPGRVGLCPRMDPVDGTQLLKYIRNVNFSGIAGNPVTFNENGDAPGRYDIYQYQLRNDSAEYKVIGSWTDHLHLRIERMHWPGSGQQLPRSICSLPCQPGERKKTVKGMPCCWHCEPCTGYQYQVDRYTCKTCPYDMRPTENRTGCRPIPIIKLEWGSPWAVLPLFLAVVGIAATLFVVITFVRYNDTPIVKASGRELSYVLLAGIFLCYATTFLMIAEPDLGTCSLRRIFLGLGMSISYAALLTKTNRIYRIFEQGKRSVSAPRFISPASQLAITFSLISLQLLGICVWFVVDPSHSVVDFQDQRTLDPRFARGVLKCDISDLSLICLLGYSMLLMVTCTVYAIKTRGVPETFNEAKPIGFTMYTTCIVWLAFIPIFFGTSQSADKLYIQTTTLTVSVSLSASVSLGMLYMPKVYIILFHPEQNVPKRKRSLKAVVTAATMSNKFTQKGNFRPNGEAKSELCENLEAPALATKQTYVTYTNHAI
In test [2] the target is T1, mGluR4. The test is described as follows: human mGluR4 potentiation in transfected CHO cells, Ca2+-sensitive fluorescent dye. The format is cell-based. On the set-up: expressed in transfected cells; host or cells: CHO cells. The note with it: unit inferred, read-out: hEC50.
Target sequence in this assay (Q14833 33-912): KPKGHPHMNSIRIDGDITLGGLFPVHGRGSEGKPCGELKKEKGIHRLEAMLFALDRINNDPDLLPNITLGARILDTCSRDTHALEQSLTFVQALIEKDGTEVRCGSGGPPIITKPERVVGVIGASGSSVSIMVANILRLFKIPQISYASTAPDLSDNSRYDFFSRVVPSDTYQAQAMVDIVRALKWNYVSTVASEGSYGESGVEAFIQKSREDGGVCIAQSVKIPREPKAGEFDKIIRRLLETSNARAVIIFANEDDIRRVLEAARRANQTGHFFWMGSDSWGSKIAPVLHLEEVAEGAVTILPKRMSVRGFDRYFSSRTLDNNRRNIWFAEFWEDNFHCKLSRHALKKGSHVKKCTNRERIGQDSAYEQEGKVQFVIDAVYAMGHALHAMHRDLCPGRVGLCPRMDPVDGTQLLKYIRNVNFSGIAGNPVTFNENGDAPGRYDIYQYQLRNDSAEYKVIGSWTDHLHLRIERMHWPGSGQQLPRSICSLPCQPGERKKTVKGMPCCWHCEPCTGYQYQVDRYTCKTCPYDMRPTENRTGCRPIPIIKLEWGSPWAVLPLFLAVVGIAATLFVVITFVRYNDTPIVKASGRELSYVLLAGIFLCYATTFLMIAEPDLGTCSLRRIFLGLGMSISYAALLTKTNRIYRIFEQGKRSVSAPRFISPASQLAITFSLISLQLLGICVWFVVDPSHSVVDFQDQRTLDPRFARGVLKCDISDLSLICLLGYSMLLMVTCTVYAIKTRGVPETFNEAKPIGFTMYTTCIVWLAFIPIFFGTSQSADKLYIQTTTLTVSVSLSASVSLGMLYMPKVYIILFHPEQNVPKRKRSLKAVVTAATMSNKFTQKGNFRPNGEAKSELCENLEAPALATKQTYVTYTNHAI

pEC50: −log10 of the molar value.

Regarding `O=C(Nc1ccn(S(=O)(=O)Cc2cccc(F)c2)c1)c1ccccn1` [Example 24], the “% Glu Max” value on mGluR4 [1] (maximum extent of potentiation) worked out at 140%. The pEC50 on mGluR4 [1] was 6.23. Consider `O=C(Nc1ccn(S(=O)(=O)c2ccc(C(F)(F)F)nc2)c1)c1ccccn1` [Example 120, N-(1-((6-(trifluoromethyl)pyricIin-3-yl)sulfonyl)-1H-pyrrol-3-yl)picolinamide], for which the pEC50 at mGluR4 [2] was 6.18. `Cc1ccccc1CS(=O)(=O)n1ccc(NC(=O)c2ccccn2)c1` [Example 28]: the “% Glu Max” value on mGluR4 [1] (maximum extent of potentiation) was 164%. Further, the pEC50 at mGluR4 [1] is 5.95.

For `O=C(Nc1ccn(S(=O)(=O)c2ccccc2Cl)c1)c1ccccc1` [Example 46, N-(1-(2-chlorophenylsulfonyl)-1H-pyrrol-3-yl)benzamide], the Emax at mGluR4 [1] (maximum extent of potentiation, read-out: % Glu Max) was 85%. Take `O=C(Nc1ccn(S(=O)(=O)C2CCCCC2)c1)c1ccccn1` [Example 22]: on mGluR4 [1] (maximum extent of potentiation), the “% Glu Max” value was 189%. Moreover, the pEC50 at mGluR4 [1] is 5.71.

On to `O=C(Nc1ccn(S(=O)(=O)c2ccc(Cl)cc2)c1)c1ccccn1` [Example 21], for which, on mGluR4 [1] (maximum extent of potentiation), the “% Glu Max” value was 215%. In addition, the pEC50 at mGluR4 [1] is 6.18. For the compound `O=C(Nc1ccn(S(=O)(=O)c2ccccc2OC(F)(F)F)c1)c1ccccn1` [Example 7], the “% Glu Max” value at mGluR4 [1] (maximum extent of potentiation) came to 90%. At mGluR4 [1], the pEC50 was 6.69. In the case of `O=C(Nc1ccn(S(=O)(=O)c2ccc3c(c2)CCO3)c1)c1ccccn1` [Example 145, N-(1-((2,3-dihydrobenzoruran-5-yl)sulfonyl)-1H-pyrrol-3-yl)picolinamide], at mGluR4 [2], the pEC50 was 7.11. Consider `O=C(Nc1ccn(S(=O)(=O)Cc2cc(Cl)cc(Cl)c2)c1)c1ccccn1` [Example 35], for which the “% Glu Max” value at mGluR4 [1] (maximum extent of potentiation) is 156%. The pEC50 on mGluR4 [1] was 5.42.

Regarding `O=C(Nc1ccn(S(=O)(=O)c2ccc(OC(F)(F)F)cc2)c1)c1ccccn1` [Example 18], the “% Glu Max” value at mGluR4 [1] (maximum extent of potentiation) was 93%. The pEC50 at mGluR4 [1] was 6.26.

In the case of `O=C(Nc1ccn(S(=O)(=O)Cc2ccccc2Cl)c1)c1ccccn1` [Example 30], on mGluR4 [1] (maximum extent of potentiation), the “% Glu Max” value turned out to be 163%. The pEC50 at mGluR4 [1] was 7.08. On to `Cc1ccc(S(=O)(=O)n2ccc(NC(=O)c3ccccn3)c2)cc1` [Example 20], for which the “% Glu Max” value on mGluR4 [1] (maximum extent of potentiation) is reported as 188%. The pEC50 on mGluR4 [1] is 7.24. On to `Cc1ccc(S(=O)(=O)n2ccc(NC(=O)c3ccco3)c2)cc1` [Example 165, N-(1-tosyl-1H-pyrrol-3-yl)furan-2-carboxamidc], for which the pEC50 at mGluR4 [2] was 6.07. `O=C(Nc1ccn(S(=O)(=O)Cc2ccc(F)cc2F)c1)c1ccccn1` [Example 32]: the “% Glu Max” value at mGluR4 [1] (maximum extent of potentiation) is 159%. In addition, on mGluR4 [1], the pEC50 was 6.73. The like results for `O=C(Nc1ccn(S(=O)(=O)c2cccc(-c3ccccc3)c2)c1)c1ccccn1` [Example 12] were, in that order, 122% and 5.48. The like results for `O=C(Nc1ccn(S(=O)(=O)c2cccc(Cl)c2)c1)c1ccccn1` [Example 14] were, in that order, 139% and 6.97. `CC(c1ccccc1F)S(=O)(=O)n1ccc(NC(=O)c2ccccn2)c1` (stereo not shown) [Example 99, N-(1-((1-(2-fluorophenyl)ethyl)sulfonyl)-1H-pyrrol-3-yl)picolinamidc]: on mGluR4 [2], the pEC50 was 6.40. For `O=C(Nc1ccn(S(=O)(=O)Cc2cccc(Cl)c2)c1)c1ccccn1` [Example 25], the “% Glu Max” value at mGluR4 [1] (maximum extent of potentiation) amounted to 132%. The pEC50 at mGluR4 [1] was 6.08. The like results for `O=C(Nc1ccn(S(=O)(=O)Cc2ccc(C(F)(F)F)cc2)c1)c1ccccn1` [Example 37] were, in that order, 158% and 6.81.

On to `Cc1cccc(CS(=O)(=O)n2ccc(NC(=O)c3ccccn3)c2)c1` [Example 38], for which, on mGluR4 [1] (maximum extent of potentiation), the “% Glu Max” value is given as 289%. The pEC50 on mGluR4 [1] was 5.84. The like results for `O=C(Nc1ccn(S(=O)(=O)c2ccc(C(F)(F)F)cc2)c1)c1ccccn1` [Example 23] were, in that order, 85% and 6.38. For `Cc1cccc(S(=O)(=O)n2ccc(NC(=O)c3ccccn3)c2)c1` [Example 15], the “% Glu Max” value at mGluR4 [1] (maximum extent of potentiation) came out at 175%. The pEC50 at mGluR4 [1] is 7.05. The like results for `O=C(Nc1ccn(S(=O)(=O)Cc2ccccc2F)c1)c1ccccn1` [Example 29] were, in that order, 161% and 6.33. The like results for `O=C(Nc1ccn(S(=O)(=O)Cc2ccc(Cl)cc2Cl)c1)c1ccccn1` [Example 31] were, in that order, 206% and 6.35. Turning to `Cc1ccc(CS(=O)(=O)n2ccc(NC(=O)c3ccccn3)c2)cc1C` [Example 33], the “% Glu Max” value on mGluR4 [1] (maximum extent of potentiation) was found to be 178%. Also, the pEC50 at mGluR4 [1] was 6.67. Consider `Cc1cc(S(=O)(=O)n2ccc(NC(=O)c3ccccn3)c2)cnc1Cl` [Example 119, N-(1-((6-chloro-5-metliylpyridin-3-yl)sulfonyl)-1H-pyrrol-3-yl)picolinamide], for which, on mGluR4 [2], the pEC50 was 6.60. Take `N#Cc1cccc(S(=O)(=O)n2ccc(NC(=O)c3ccccn3)c2)c1` [Example 13]: on mGluR4 [1] (maximum extent of potentiation), the “% Glu Max” value stood at 104%. Further, the pEC50 on mGluR4 [1] is 6.55. As to `CC(C)Cc1ccc(S(=O)(=O)n2ccc(NC(=O)c3ccccn3)c2)cc1` [Example 17], the “% Glu Max” value at mGluR4 [1] (maximum extent of potentiation) is listed as 30%. Besides, the pEC50 at mGluR4 [1] was 6.59. The like results for `O=C(Nc1ccn(S(=O)(=O)Cc2ccc(Cl)c(Cl)c2)c1)c1ccccn1` [Example 34] were, in that order, 159% and 6.08. Turning to `Cc1ccc(S(=O)(=O)n2ccc(NC(=O)c3nccs3)c2)cc1` [Example 51, N-(1-tosyl-1H-pyrrol-3-yl)thiazole-2-carboxamidc], the pEC50 on mGluR4 [2] was 6.46. Turning to `O=C(Nc1ccn(S(=O)(=O)Cc2cccc(C(F)(F)F)c2)c1)c1ccccn1` [Example 27], the “% Glu Max” value on mGluR4 [1] (maximum extent of potentiation) turned out to be 117%. Moreover, the pEC50 at mGluR4 [1] is 5.76.

For the compound `O=C(Nc1ccn(S(=O)(=O)c2ccc(F)cc2)c1)c1ccccn1` [Example 19], the “% Glu Max” value on mGluR4 [1] (maximum extent of potentiation) turned out to be 137%. Also, the pEC50 at mGluR4 [1] is 6.55. For `Cc1ccnc(S(=O)(=O)n2ccc(NC(=O)c3ccccn3)c2)c1` [Example 117, N-(1-((4-mcthylpyridin-2-yl)sulfonyl)-1H-pyrrol-3-yl)picolinamide], at mGluR4 [2], the pEC50 is 5.89. The same measure, in the same setting: then `Cc1ccc(S(=O)(=O)n2ccc(NC(=O)c3ccccn3)c2)o1` [Example 142, N-(1-((5-methylruran-2-yl)sulfonyl)-1H-pyrrol-3-yl)picolinamide], with 6.59.

As for `O=C(Nc1ccn(S(=O)(=O)c2ccc(OC(F)F)cc2)c1)c1ccccn1` [Example 16], the “% Glu Max” value on mGluR4 [1] (maximum extent of potentiation) amounted to 151%. Besides, on mGluR4 [1], the pEC50 was 6.79.
